Results as given in patent US20100086483A1, “METHOD OF MULTIDETECTOR COMPUTED TOMAGRAPHY” (Gilead Palo Alto, Inc., priority 2008, published 2010).

Assays:
conscious dogs = test: Effects of caffeine on regadenoson-induced coronary vasodilation and changes in hemodynamics in conscious dogs (Part II); format: in vivo, dog; details: for change of maximum increase in CBF induced by regadenoson vs control: regadenoson 5 μg/kg IV, p>0.05
Procedure: Sixteen chronically instrumented male mongrel dogs weighing from 22-30 kg were used in the study. The animal protocol was approved by the Institutional Animal Care and Use Committee of New York Medical College and conforms to the Guide for the Care and Use of Laboratory Animal by the United States National Institutes of Health.
Dogs were sedated with acepromazine (0.3 mg/kg, IM) and anesthetized with pentobarbital sodium (25 mg/kg, IV). After intubation, dogs were artificially ventilated with room air. A thoracotomy was made in the fifth intercostal space using sterile techniques. A Tygon catheter (Cardiovascular Instruments, Wakefield, Mass.) was inserted into the descending thoracic aorta and another one was inserted into the left atrium. In 9 dogs, an ultrasound flow transducer (Transonic Systems, Ithaca, N.Y.) was placed around the left circumflex coronary artery. A solid-state pressure gauge (P6.5, Konisberg Instruments, Pasadena, Calif.) was placed into the left ventricle through the apex. The chest was closed in layers. The catheters and wires were tunneled subcutaneously and externalized through the skin at the back of the dog's neck. Dogs were allowed to recover from the surgery before experiments were performed, and were trained to lie on a table.
Phasic arterial pressure was measured by connecting the aortic catheter to a strain gauge transducer (P23 ID, LDS Test and Measurement, Valley View, Ohio). Left ventricular pressures were measured by the solid pressure gauge. CBF (mL/min) was measured from an ultrasound flow transducer using a Transonic flowmeter (T206, Transonic Systems, Ithaca, N.Y.). Two indices were used to describe the regadenoson-induced coronary vasodilation: 1) the maximum increase in CBF and 2) the duration of the 2-fold increase in CBF (the period of time that CBF was elevated to a level ≧2-fold of baseline CBF). All pressure and flow data were acquired and analyzed using a Ponemah System (Version 3.30 or 4.20, LDS Test and Measurement, Valley View, Ohio). MAP and HR were calculated from phasic blood pressure, and LV dP/dtMax was calculated from the left ventricular systolic pressure.
On the day of an experiment, a dog was placed on a table, where it lay quietly during the experiment. A catheter was inserted into a peripheral vein in the leg and attached to an infusion line to administer drugs without disturbing the dog. The experiment was begun after MAP, HR and CBF were stable.
Each dog received an IV injection of 5 μg/kg of regadenoson. […] LVSP, LV dP/dtMax, MAP, HR and CBF were recorded continuously. Blood samples were taken from the left atrial catheter at 1, 3, 5, 15, 30, 45 and 60 min following injections of regadenoson.
In 4 dogs, two doses of regadenoson (5 μg/kg, IV) were given 90 min apart (without blood sampling) to determine if there is tachyphylaxis of regadenoson-induced coronary vasodilation.
The statistical significance of a difference between the value of a parameter at baseline and at the indicated time point after drug administration was determined using a One-Way Repeated Measures ANOVA followed by Tukey's Test. […] Results with p<0.05 were considered to be significant. […] All data are presented as Mean±SEM.

normal subjects = test: Safety and tolerability of regadenoson with and without prior caffeine; format: in vivo, human; details: regadenoson 400 μg IV
Procedure: 15O water was used as the radionuclide in the PET scans. There was a 1- to 14-day washout period between dosing days. Blood samples and measures of safety were collected until 120 minutes after study drug administration.
Safety measures included adverse events (AEs), serious adverse events, vital signs (HR and BP), ECG, concomitant medications, and a tolerability questionnaire. All available data from subjects who received the single dose of regadenoson were to be included in the statistical summaries.
ECG intervals and changes from baseline values in ECG intervals were to be presented, as were occurrences of rhythm or conduction abnormalities. Concomitant medication usage was to be summarized.
Tolerability questionnaire responses were to be analyzed using the Wilcoxen rank sum test (“How did you feel?” question) and the exact Cochran-Mantel-Haenszel test (Day 2-only question “How did this test compare to the first test?”).

[1] = regadenoson 5 μg/kg IV 45 min after caffeine 1 mg/kg IV, 1 min
[2] = regadenoson 5 μg/kg IV 45 min after caffeine 1 mg/kg IV, 2 min
[3] = regadenoson 5 μg/kg IV 45 min after caffeine 1 mg/kg IV, 3 min
[4] = regadenoson 5 μg/kg IV 45 min after caffeine 1 mg/kg IV, 20 min
[5] = regadenoson 5 μg/kg IV 45 min after caffeine 2 mg/kg IV, 1 min
[6] = caffeine 200 mg po vs placebo, p<0.001

SMILES: Cn1c(=O)c2c(ncn2C)n(C)c1=O [Caffeine, caffeine]
- HR (conscious dogs; 45 min after caffeine 1 mg/kg IV, before regadenoson (baseline)): 74 ± 5 bpm
- HR (conscious dogs; 45 min after caffeine 2 mg/kg IV, before regadenoson (baseline)): 75 ± 5 bpm
- HR (conscious dogs; 45 min after caffeine 4 mg/kg IV, before regadenoson (baseline)): 81 ± 9 bpm
- HR (conscious dogs; 45 min after caffeine 10 mg/kg IV, before regadenoson (baseline)): 78 ± 6 bpm
- baseline CBF before vs after caffeine treatment (conscious dogs; 45 min after caffeine 1, 2, 4 and 10 mg/kg): not significantly different
- change of maximum increase in CBF induced by regadenoson vs control (conscious dogs; caffeine 1 mg/kg IV): 2±3%
- change of maximum increase in CBF induced by regadenoson vs control (conscious dogs; caffeine 2 mg/kg IV): −0.7±3%
- change of maximum increase in CBF induced by regadenoson vs control (conscious dogs; caffeine 4 mg/kg IV): −16±5%
- change of maximum increase in CBF induced by regadenoson vs control (conscious dogs; caffeine 10 mg/kg IV): −13±8%
- effect on hemodynamics at 45 min following caffeine administration (conscious dogs; caffeine at 1, 2, 4 or 10 mg/kg): did not alter hemodynamics significantly
- regadenoson-induced increase in LV dP/dtMax vs without caffeine (conscious dogs; in the presence of caffeine 1 mg/kg): slightly greater
- regadenoson-induced increase in LV dP/dtMax vs without caffeine (conscious dogs; in the presence of caffeine 10 mg/kg): not altered
- regadenoson-induced increase in LV dP/dtMax vs without caffeine (conscious dogs; in the presence of caffeine at 2 and 4 mg/kg): slightly smaller
- HR (conscious dogs; regadenoson 5 μg/kg IV 45 min after caffeine 1 mg/kg IV, 0.5 min): 126 ± 7 bpm
- HR (conscious dogs; [1]): 135 ± 9 bpm
- MAP (conscious dogs; [1]): 100 ± 4 mm Hg
- HR (conscious dogs; [2]): 131 ± 12 bpm
- MAP (conscious dogs; [2]): 102 ± 4 mm Hg
- HR (conscious dogs; [3]): 119 ± 9 bpm
- MAP (conscious dogs; [3]): 101 ± 5 mm Hg
- HR (conscious dogs; regadenoson 5 μg/kg IV 45 min after caffeine 1 mg/kg IV, 4 min): 110 ± 4 bpm
- HR (conscious dogs; regadenoson 5 μg/kg IV 45 min after caffeine 1 mg/kg IV, 5 min): 106 ± 7 bpm
- HR (conscious dogs; regadenoson 5 μg/kg IV 45 min after caffeine 1 mg/kg IV, 10 min): 89 ± 7 bpm
- HR (conscious dogs; regadenoson 5 μg/kg IV 45 min after caffeine 1 mg/kg IV, 15 min): 87 ± 7 bpm
- HR (conscious dogs; [4]): 81 ± 8 bpm
- MAP (conscious dogs; [4]): 102 ± 4 mm Hg
- HR (conscious dogs; regadenoson 5 μg/kg IV 45 min after caffeine 2 mg/kg IV, 0.5 min): 121 ± 10 bpm
- HR (conscious dogs; [5]): 125 ± 10 bpm
- MAP (conscious dogs; [5]): 102 ± 7 mm Hg
- HR (conscious dogs; regadenoson 5 μg/kg IV 45 min after caffeine 2 mg/kg IV, 2 min): 122 ± 5 bpm
- HR (conscious dogs; regadenoson 5 μg/kg IV 45 min after caffeine 2 mg/kg IV, 3 min): 110 ± 3 bpm
- HR (conscious dogs; regadenoson 5 μg/kg IV 45 min after caffeine 2 mg/kg IV, 4 min): 106 ± 4 bpm
- HR (conscious dogs; regadenoson 5 μg/kg IV 45 min after caffeine 2 mg/kg IV, 5 min): 97 ± 3 bpm
- HR (conscious dogs; regadenoson 5 μg/kg IV 45 min after caffeine 2 mg/kg IV, 10 min): 84 ± 5 bpm
- HR (conscious dogs; regadenoson 5 μg/kg IV 45 min after caffeine 2 mg/kg IV, 15 min): 85 ± 6 bpm
- HR (conscious dogs; regadenoson 5 μg/kg IV 45 min after caffeine 2 mg/kg IV, 20 min): 84 ± 5 bpm
- HR (conscious dogs; regadenoson 5 μg/kg IV 45 min after caffeine 4 mg/kg IV, 0.5 min): 126 ± 12 bpm
- HR (conscious dogs; regadenoson 5 μg/kg IV 45 min after caffeine 4 mg/kg IV, 1 min): 114 ± 11 bpm
- HR (conscious dogs; regadenoson 5 μg/kg IV 45 min after caffeine 4 mg/kg IV, 2 min): 106 ± 12 bpm
- HR (conscious dogs; regadenoson 5 μg/kg IV 45 min after caffeine 4 mg/kg IV, 3 min): 102 ± 7 bpm
- HR (conscious dogs; regadenoson 5 μg/kg IV 45 min after caffeine 4 mg/kg IV, 4 min): 94 ± 8 bpm
- HR (conscious dogs; regadenoson 5 μg/kg IV 45 min after caffeine 4 mg/kg IV, 5 min): 94 ± 7 bpm
- HR (conscious dogs; regadenoson 5 μg/kg IV 45 min after caffeine 4 mg/kg IV, 10 min): 85 ± 8 bpm
- HR (conscious dogs; regadenoson 5 μg/kg IV 45 min after caffeine 4 mg/kg IV, 15 min): 85 ± 8 bpm
- HR (conscious dogs; regadenoson 5 μg/kg IV 45 min after caffeine 4 mg/kg IV, 20 min): 87 ± 7 bpm
- HR (conscious dogs; regadenoson 5 μg/kg IV 45 min after caffeine 10 mg/kg IV, 0.5 min): 115 ± 12 bpm
- HR (conscious dogs; regadenoson 5 μg/kg IV 45 min after caffeine 10 mg/kg IV, 1 min): 102 ± 6 bpm
- HR (conscious dogs; regadenoson 5 μg/kg IV 45 min after caffeine 10 mg/kg IV, 2 min): 106 ± 11 bpm
- HR (conscious dogs; regadenoson 5 μg/kg IV 45 min after caffeine 10 mg/kg IV, 3 min): 96 ± 7 bpm
- HR (conscious dogs; regadenoson 5 μg/kg IV 45 min after caffeine 10 mg/kg IV, 4 min): 94 ± 8 bpm
- HR (conscious dogs; regadenoson 5 μg/kg IV 45 min after caffeine 10 mg/kg IV, 5 min): 93 ± 5 bpm
- HR (conscious dogs; regadenoson 5 μg/kg IV 45 min after caffeine 10 mg/kg IV, 10 min): 88 ± 7 bpm
- HR (conscious dogs; regadenoson 5 μg/kg IV 45 min after caffeine 10 mg/kg IV, 15 min): 88 ± 6 bpm
- HR (conscious dogs; regadenoson 5 μg/kg IV 45 min after caffeine 10 mg/kg IV, 20 min): 86 ± 4 bpm
- tolerability questionnaire: comfort during the test with caffeine (normal subjects; [6]): felt more comfortable
- tolerability questionnaire: feeling after the caffeine test vs the placebo test (normal subjects; [6]): felt better
- effect of caffeine on severity of AEs (normal subjects; caffeine 200 mg po): attenuated
- effect of caffeine on systolic or diastolic blood pressures in the presence of regadenoson (normal subjects; caffeine 200 mg po): no effect
- overall incidence of AEs, placebo vs caffeine groups (normal subjects; caffeine 200 mg po): no difference
- effect of caffeine on HR increase caused by regadenoson (normal subjects; caffeine 200 mg po, p<0.001): attenuated
- regadenoson-induced headache severity with caffeine (normal subjects; caffeine 200 mg po, p=0.012): decreased
